PMC6037779, “Repurposing drugs to target the malaria parasite unfolding protein response” (Scientific Reports, 2018)

How the values were obtained:
PfGRP78-NBD mut (Y39F) = molecular target: T1, PfGRP78-NBD mut (Y39F) (Plasmodium falciparum, UniProt Q05866, Y39F); assay: SPR (Biacore) binding to PfGRP78-NBD Y39F mutant; details: ± standard error, 25 °C
T1 construct: His-tag (pET28-MHL, TEV site) (N, cleaved yes); made in house; host or cells: E. coli BL21(DE3)
Method: (§1) To quantify the binding affinities of PfGRP78-NBD for the selected compounds, dissociation constants (Kd) were determined by surface plasmon resonance (SPR). […] Purified PfGRP78-FL, PfGRP78-NBD wild-type and mutant, and human GRP78-NBD were immobilized on a CM5 sensorchip using NHS/EDC coupling following the manufacturer protocol to a level of <10,000 RUs, a reference surfaces without immobilized proteins served as a control for nonspecific binding and refractive index changes. Seven different concentrations of the ligands between 0.4 nM to 1 mM, were injected in triplicate over the sensor chip at 30 µL/min in random order. The running buffer was 10 mM HEPES, pH 7.4, 150 mM NaCl, 0.005% P20, 1% DMSO and 2 mM MgCl2. Buffer only injections were used as blanks. The Biacore responses recorded during the 30 seconds of the injection were used to estimate the association constant (kon) and the 300 seconds after the injection were used to estimate the dissociation constant (koff). All dissociation and kinetic constants were estimated using double subtracted sensorgrams[40] using BiaEvaluation Software (GE Healthcare). All the reported parasite dissociation constants (Kd) were estimated with affinity analysis, and all the reported human Kds were calculated from kinetic constants.

PfGRP78 = molecular target: T2, PfGRP78 (Plasmodium falciparum, UniProt Q05866); assay: PfGRP78 protein levels by immuno-blot after exposure of P. falciparum W2 culture; type: cell-based
T2 construct: endogenous in cells; host or cells: P. falciparum W2 culture in human red blood cells
T2 sequence (Q05866 25-652): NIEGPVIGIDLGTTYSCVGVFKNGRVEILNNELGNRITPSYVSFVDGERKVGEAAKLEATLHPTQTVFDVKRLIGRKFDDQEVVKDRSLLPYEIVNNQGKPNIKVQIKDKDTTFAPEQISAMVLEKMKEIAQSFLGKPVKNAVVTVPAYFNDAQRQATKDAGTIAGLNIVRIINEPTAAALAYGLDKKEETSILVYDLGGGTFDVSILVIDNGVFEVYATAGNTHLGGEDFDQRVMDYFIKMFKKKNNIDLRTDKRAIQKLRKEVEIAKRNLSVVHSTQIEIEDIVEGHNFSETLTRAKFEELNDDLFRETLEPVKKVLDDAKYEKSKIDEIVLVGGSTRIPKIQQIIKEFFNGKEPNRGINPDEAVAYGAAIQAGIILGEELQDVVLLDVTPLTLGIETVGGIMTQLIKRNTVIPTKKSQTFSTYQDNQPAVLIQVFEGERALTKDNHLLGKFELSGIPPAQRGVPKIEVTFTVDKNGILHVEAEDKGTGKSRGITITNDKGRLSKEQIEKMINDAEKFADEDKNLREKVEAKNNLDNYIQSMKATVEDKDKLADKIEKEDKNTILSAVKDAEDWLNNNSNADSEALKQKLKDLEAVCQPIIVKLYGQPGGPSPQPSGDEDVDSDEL
Method: Culture aliquots were taken at several time points and the PfGRP78 levels of were evaluated by immuno-blots (Fig. 4). […] Thus, providing further support to the notion that Apoptozole antiplasmodial activity is mediated by its effect on PfGRP78.
A 55 ml suspension of ring-stage P. falciparum W2 parasites at 1.5% parasitaemia and 1.5% of hematocrit were split into 11 culture dishes of 5 ml each. One culture plate was served as a starting point (0 h) and of the remaining ten culture plates, half were exposed to 45 µM Apoptozole and half to DMSO 0.09% for 6 h. After 6 h the Apoptozole or DMSO were removed by washing the parasite culture with complete media twice. Culture dishes contained control (DMSO) and Apoptozole treated parasites were incubated at 37 °C in 5% O2 and 5% CO2 atmosphere throughout the duration of the experiment. One of each control and treated group were harvest at times 1, 3, 6, 24 and 48 hours. Samples were processed by harvesting the red blood cell using centrifugation 5 min at 5000 g and washed twice with PBS 1 × 5000 g for 1 min at 4 °C. The pellet was resuspended in 1 ml of 0.02% saponin-PBS solution (Sigma, Aldrich) and centrifuged 10 min 11000 g at 4 °C. The parasite pellet was washed twice with PBS and resuspended in 100 µl PBS. A 30 µl sample was mixed with 30 µl of Laemlii lysis buffer (BioRad) and 3 µl 14.1 M 2-mercaptoethanol (BioRad) and boiled for 10 min. […]

huGRP78-NBD = molecular target: T3, huGRP78-NBD (Homo sapiens, UniProt P11021); assay: SPR (Biacore) binding to human GRP78-NBD; details: ± standard error; calculated from kinetic constants; 25 °C; read-out: affinity constant (Kd) determined by SPR, huGRP78-NBD
T3 construct: PfGRP78-NBD wild type and mutant, and human GRP78-NBD were buffered in 25 mM hepes pH 7.5
T3 sequence (P11021 26-407 limits assumed): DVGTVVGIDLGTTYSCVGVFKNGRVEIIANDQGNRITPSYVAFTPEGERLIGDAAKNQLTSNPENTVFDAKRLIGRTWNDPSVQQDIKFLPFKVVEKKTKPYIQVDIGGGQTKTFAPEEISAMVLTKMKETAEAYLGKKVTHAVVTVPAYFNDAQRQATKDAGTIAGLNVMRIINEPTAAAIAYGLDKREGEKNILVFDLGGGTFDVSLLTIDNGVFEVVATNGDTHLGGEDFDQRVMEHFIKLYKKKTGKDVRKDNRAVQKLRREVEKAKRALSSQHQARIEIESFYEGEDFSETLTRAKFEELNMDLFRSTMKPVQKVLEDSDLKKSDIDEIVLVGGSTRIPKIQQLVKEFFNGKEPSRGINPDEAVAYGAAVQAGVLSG
Method: as §1, with “Seven different concentrations of the ligands between 0.4 nM to 1 mM, were injected in triplicate over the sensor chip at 30 µL/min in random order.” left out

[1] = tested on: Plasmodium falciparum 3D7; assay: In vitro growth inhibition assay (SYBR Green I), strain 3D7; type: cell-based; details: Plasmodium falciparum, 3D7; chloroquine-sensitive strain; 72 hours; average of three ± SD; read-out: EC50, growth inhibition, P. falciparum 3D7
Method: A major goal of our study was to evaluate the drug target potential of P. falciparum GRP78, thus we evaluated the effect of the chaperone inhibition on the malaria parasite. Our approach took advantage of several GRP78 inhibitors (Fig. 3a) previously characterized against human cancer cell lines, which were commercially available[20],[24]–[27]. These compounds were tested against two different parasite strains with opposite sensitivity towards the antimalarial drug chloroquine, 3D7 (sensitive) and W2 (resistant). […] A synchronized P. falciparum culture, with over 80% ring forms, was used in the growth inhibition assay. Each strain was assayed at 0.5% parasitaemia and 1.5% hematocrit. A 190 µL aliquot of parasite culture was dispensed per well to microplates that were pre-dispensed with the compounds at various dilutions. […] Dilutions of GRP78 inhibitors and DHA were prepared in water with a final concentration of DMSO below 0.05% (v/v). […] After incubation, the plates were subject to a freeze-thaw cycle (−80 °C) and the parasite growth was quantified by the SYBR Green I method as previously described. Briefly, 100 µl of homogenized parasite culture was transferred into 96-well black plates. 100 µl of SYBR Green lysis buffer (2x SYBR Green I, 100 mM Tris-HCl pH 7.5, 10 mM EDTA, 0.016% Saponin and 1.6% Triton X-100) were added to each well. The plates were incubated at room temperature in darkness for 1 hour.
Growth inhibition experiments were conducted at least three times per compound. […] The statistical analysis was performed with the software Prism 7 (GraphPad Software, San Diego, CA).

T1 sequence (Q05866 26-404 Y39F): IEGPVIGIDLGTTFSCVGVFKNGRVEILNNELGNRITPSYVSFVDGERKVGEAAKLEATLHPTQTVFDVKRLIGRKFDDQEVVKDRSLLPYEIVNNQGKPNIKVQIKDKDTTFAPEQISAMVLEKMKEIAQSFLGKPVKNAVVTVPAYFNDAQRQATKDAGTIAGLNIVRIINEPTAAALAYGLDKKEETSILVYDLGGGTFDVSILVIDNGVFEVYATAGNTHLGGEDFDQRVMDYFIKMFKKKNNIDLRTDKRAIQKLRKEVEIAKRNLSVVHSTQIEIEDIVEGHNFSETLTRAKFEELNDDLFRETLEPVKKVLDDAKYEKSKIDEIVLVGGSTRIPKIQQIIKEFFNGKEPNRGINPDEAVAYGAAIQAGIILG

SMILES: COc1ccc(-c2nc(-c3cc(C(F)(F)F)cc(C(F)(F)F)c3)n(Cc3ccc(C(N)=O)cc3)c2-c2ccc(OC)cc2)cc1 [Apoptozole]
- affinity constant (Kd) determined by SPR, PfGRP78-NBD mut (PfGRP78-NBD mut (Y39F)): N.B.
- PfGRP78 levels, first 6 hours (PfGRP78; 45 µM (10xEC50) for 6 h): did not changed
- PfGRP78 levels, 24 and 48 h time points (PfGRP78; 45 µM (10xEC50) for 6 h then washed): clear reduction
- Kd (huGRP78-NBD): 6.9 ± 0.33 µM
- EC50 [1]: 6.8 ± 1.4 µM
